PubChem BioAssay AID248 (DTP/NCI, 2004)
Values joined by “and” are separate entries in the source; they are usually repeats but may differ in a detail not shown here. Identical values can stand only once. Toxic doses and inconclusive results are not listed.

Tested on: L1210 leukemia ip in BDF1 mice, survival T/C
Test: NCI In Vivo Anticancer Drug Screen. Data for tumor model L1210 Leukemia (intraperitoneal) in B6D2F1 (BDF1) mice
Details: endpoint: mean survival time, higher = longer survival
In short: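 Value reflects the ratio of survival in compound-treated mice to survival in vehicle-treated controls, with both groups carrying the same transplanted tumor.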

[1] = dose: 100.0 mg/kg/injection, schedule: Q01DX001 (ip), vehicle: Klucel (hydroxypropylcellulose) (HPC)
[2] = dose: 100.0 mg/kg/injection, schedule: Q01DX009 (ip), vehicle: Klucel (hydroxypropylcellulose) (HPC)
[3] = dose: 200.0 mg/kg/injection, schedule: Q01DX001 (ip), vehicle: Klucel (hydroxypropylcellulose) (HPC)
[4] = dose: 200.0 mg/kg/injection, schedule: Q01DX009 (ip), vehicle: Klucel (hydroxypropylcellulose) (HPC)
[5] = dose: 400.0 mg/kg/injection, schedule: Q01DX001 (ip), vehicle: Klucel (hydroxypropylcellulose) (HPC)
[6] = dose: 400.0 mg/kg/injection, schedule: Q01DX009 (ip), vehicle: Klucel (hydroxypropylcellulose) (HPC)
[7] = dose: 100.0 mg/kg/injection, schedule: Q04DX003 (ip), vehicle: Klucel (hydroxypropylcellulose) (HPC)
[8] = dose: 200.0 mg/kg/injection, schedule: Q04DX003 (ip), vehicle: Klucel (hydroxypropylcellulose) (HPC)
[9] = dose: 400.0 mg/kg/injection, schedule: Q04DX003 (ip), vehicle: Klucel (hydroxypropylcellulose) (HPC)
[10] = dose: 100.0 mg/kg/injection, schedule: Q04DX002 (ip), vehicle: saline with Tween-80
[11] = dose: 200.0 mg/kg/injection, schedule: Q04DX002 (ip), vehicle: saline with Tween-80
[12] = dose: 100.0 mg/kg/injection, schedule: Q01DX009 (ip), vehicle: saline with Tween-80
[13] = dose: 200.0 mg/kg/injection, schedule: Q01DX009 (ip), vehicle: saline with Tween-80
[14] = dose: 400.0 mg/kg/injection, schedule: Q01DX009 (ip), vehicle: saline with Tween-80
[15] = dose: 100.0 mg/kg/injection, schedule: Q01DX001 (ip), vehicle: saline
[16] = dose: 200.0 mg/kg/injection, schedule: Q01DX001 (ip), vehicle: saline
[17] = dose: 100.0 mg/kg/injection, schedule: Q04DX003 (ip), vehicle: saline with Tween-80
[18] = dose: 75.0 mg/kg/injection, schedule: Q04DX003 (ip), vehicle: saline
[19] = dose: 150.0 mg/kg/injection, schedule: Q04DX003 (ip), vehicle: saline
[20] = dose: 300.0 mg/kg/injection, schedule: Q04DX003 (ip), vehicle: saline
[21] = dose: 100.0 mg/kg/injection, schedule: Q01DX009 (ip), vehicle: saline
[22] = dose: 200.0 mg/kg/injection, schedule: Q01DX009 (ip), vehicle: saline

SMILES: C=CC(C)(CC/C=C(\C)CCC=C(C)C)OC(=O)NC(=O)C(Cl)(Cl)Cl (configuration not stated)
- T/C (dose: 50.0 mg/kg/injection, schedule: Q01DX009 (ip), vehicle: Klucel (hydroxypropylcellulose) (HPC)): 103 % of control
- T/C [1]: 111 % of control
- T/C [2]: 100 % of control
- T/C [3]: 101 % of control
- T/C [4]: 97 % of control
- T/C [5]: 105 % of control

SMILES: CC1(CCCCCBr)OCCO1
- T/C [2]: 97 % of control
- T/C [4]: 100 % of control
- T/C [6]: 94 % of control

SMILES: CN=C(NC)c1ccc(NC(=O)c2cc(OC)cc(C(=O)Nc3ccc(C(=NC)NC)cc3)c2)cc1
- T/C (dose: 3.75 mg/kg/injection, schedule: Q01DX Z (ip), vehicle: saline): 100 % of control
- T/C (dose: 7.5 mg/kg/injection, schedule: Q01DX Z (ip), vehicle: saline): 98 % of control
- T/C (dose: 15.0 mg/kg/injection, schedule: Q01DX Z (ip), vehicle: saline): 98 % of control

SMILES: O=C(NCCCl)C(Cl)(Cl)Cl
- T/C [7]: 98 % of control
- T/C [8]: 97 % of control
- T/C [9]: 106 % of control

SMILES: C#CCN(CC#C)c1ccccc1
- T/C [10]: 100 % of control
- T/C [11]: 93 % of control
- T/C (dose: 400.0 mg/kg/injection, schedule: Q04DX002 (ip), vehicle: saline with Tween-80): 97 % of control

SMILES: O=[N+]([O-])c1ccc(N/N=C(\CBr)c2ccccc2)c([N+](=O)[O-])c1
- T/C [12]: 94 % of control
- T/C [13]: 95 % of control
- T/C [14]: 94 % of control

SMILES: CC(=O)O/N=C1\c2ccccc2-c2ccc([N+](=O)[O-])cc21
- T/C (dose: 75.0 mg/kg/injection, schedule: Q01DX009 (ip), vehicle: Klucel (hydroxypropylcellulose) (HPC)): 93 % of control
- T/C [7]: 97 % of control
- T/C (dose: 150.0 mg/kg/injection, schedule: Q01DX009 (ip), vehicle: Klucel (hydroxypropylcellulose) (HPC)): 86 % of control
- T/C [8]: 95 % of control
- T/C (dose: 300.0 mg/kg/injection, schedule: Q01DX009 (ip), vehicle: Klucel (hydroxypropylcellulose) (HPC)): 86 % of control
- T/C [9]: 100 % of control

SMILES: CCOc1ncc([N+](=O)[O-])cn1
- T/C [7]: 101 % of control
- T/C [8]: 114 % of control
- T/C [9]: 103 % of control

SMILES: O=C(N/N=C/c1ccccc1)c1ccc(Cl)c(Cl)c1
- T/C (dose: 100.0 mg/kg/injection, schedule: Q04DX003 (ip), vehicle: other): 100 % of control
- T/C (dose: 200.0 mg/kg/injection, schedule: Q04DX003 (ip), vehicle: other): 92 % of control
- T/C (dose: 400.0 mg/kg/injection, schedule: Q04DX003 (ip), vehicle: other): 89 % of control

SMILES: Clc1ccc(Cl)nc1
- T/C [2]: 103 % of control
- T/C [7]: 98 % of control
- T/C [4]: 93 % of control
- T/C [8]: 98 % of control
- T/C [6]: 103 % of control
- T/C [9]: 88 % of control

SMILES: Cn1c(Cl)c(C=O)c2ccccc21
- T/C (dose: 50.0 mg/kg/injection, schedule: Q04DX002 (ip), vehicle: Klucel (hydroxypropylcellulose) (HPC)): 90 % of control
- T/C (dose: 100.0 mg/kg/injection, schedule: Q04DX002 (ip), vehicle: Klucel (hydroxypropylcellulose) (HPC)): 93 % of control
- T/C (dose: 200.0 mg/kg/injection, schedule: Q04DX002 (ip), vehicle: Klucel (hydroxypropylcellulose) (HPC)): 97 % of control

SMILES: ClC1=C(Cl)C2(Cl)C3C4CCC(C4)C3C1(Cl)C2(Cl)Cl (configuration not stated)
- T/C (dose: 200.0 mg/kg/injection, schedule: Q04DX003 (ip), vehicle: saline): 121 % of control
- T/C (dose: 400.0 mg/kg/injection, schedule: Q04DX003 (ip), vehicle: saline): 108 % of control

SMILES: CC(C)CC(Br)C(=O)NCC(=O)O (configuration not stated)
- T/C [12]: 88 % of control
- T/C [13]: 91 % of control
- T/C [14]: 89 % of control

SMILES: CC(=O)Oc1ccc(Br)cc1C=O
- T/C (dose: 100.0 mg/kg/injection, schedule: Q01DX001 (ip), vehicle: carboxymethylcellulose (CMC)): 100 % of control
- T/C (dose: 200.0 mg/kg/injection, schedule: Q01DX001 (ip), vehicle: carboxymethylcellulose (CMC)): 94 % of control
- T/C (dose: 400.0 mg/kg/injection, schedule: Q01DX001 (ip), vehicle: carboxymethylcellulose (CMC)): 103 % of control

SMILES: COc1cc([N+](=O)[O-])c2nc(C(=O)O)ccc2c1
- T/C (dose: 50.0 mg/kg/injection, schedule: Q01DX001 (ip), vehicle: saline): 116 % of control
- T/C [15]: 106 % of control
- T/C [16]: 112 % of control

SMILES: CCCSCCSCCC
- T/C (dose: 25.0 mg/kg/injection, schedule: Q04DX003 (ip), vehicle: saline with Tween-80): 104 % of control
- T/C (dose: 50.0 mg/kg/injection, schedule: Q04DX003 (ip), vehicle: saline with Tween-80): 102 % of control
- T/C [17]: 104 % of control and 90 % of control

SMILES: O=C(O)CP(=O)(O)O
- T/C [18]: 102 % of control
- T/C [19]: 102 % of control
- T/C [20]: 93 % of control

SMILES: C/C=C/C(=O)OCCN(CC)CC
- T/C (dose: 50.0 mg/kg/injection, schedule: Q01DX009 (ip), vehicle: saline): 103 % of control
- T/C [21]: 103 % of control
- T/C [22]: 100 % of control

SMILES: CCOC(=O)C(C)(C)CCl
- T/C [2]: 100 % of control
- T/C [4]: 94 % of control
- T/C [6]: 103 % of control

SMILES: O=C1c2ccccc2-c2nc3ncccc3nc21
- T/C [7]: 101 % of control
- T/C [8]: 98 % of control
- T/C [9]: 98 % of control

SMILES: Cc1cc(C)c(NC(=O)N(CCCl)N=O)cc1C
- T/C (dose: 1.0 mg/kg/injection, schedule: Q01DX009 (ip), vehicle: carboxymethylcellulose (CMC)): 104 % of control
- T/C (dose: 2.0 mg/kg/injection, schedule: Q01DX009 (ip), vehicle: carboxymethylcellulose (CMC)): 109 % of control
- T/C (dose: 4.0 mg/kg/injection, schedule: Q01DX009 (ip), vehicle: carboxymethylcellulose (CMC)): 107 % of control
- T/C (dose: 50.0 mg/kg/injection, schedule: Q01DX001 (ip), vehicle: other): 97 % of control
- T/C (dose: 88.0 mg/kg/injection, schedule: Q01DX009 (ip), vehicle: carboxymethylcellulose (CMC)): 155 % of control
- T/C (dose: 100.0 mg/kg/injection, schedule: Q01DX001 (ip), vehicle: other): 106 % of control
- T/C (dose: 133.0 mg/kg/injection, schedule: Q01DX009 (ip), vehicle: carboxymethylcellulose (CMC)): 180 % of control
- T/C (dose: 200.0 mg/kg/injection, schedule: Q01DX001 (ip), vehicle: other): 100 % of control
- T/C (dose: 200.0 mg/kg/injection, schedule: Q01DX009 (ip), vehicle: carboxymethylcellulose (CMC)): 166 % of control

SMILES: N#CCC(C(=O)c1cccnc1)c1ccccc1 (configuration not stated)
- T/C (dose: 100.0 mg/kg/injection, schedule: Q04DX002 (ip), vehicle: gum acacia): 104 % of control
- T/C (dose: 200.0 mg/kg/injection, schedule: Q04DX002 (ip), vehicle: gum acacia): 87 % of control

SMILES: CCCCCCCCCCCCCCCCOc1ccc(S(=O)(=O)N2CCOCC2)cc1[N+](=O)[O-]
- T/C [18]: 103 % of control
- T/C [1]: 97 % of control
- T/C [19]: 93 % of control
- T/C [3]: 104 % of control
- T/C [20]: 95 % of control
- T/C [5]: 104 % of control

SMILES: CCOC(=O)C(C(=O)OCC)c1cc(NC(=O)c2ccccc2)ccc1NC(=O)c1ccccc1
- T/C [17]: 98 % of control
- T/C (dose: 200.0 mg/kg/injection, schedule: Q04DX003 (ip), vehicle: saline with Tween-80): 95 % of control
- T/C (dose: 400.0 mg/kg/injection, schedule: Q04DX003 (ip), vehicle: saline with Tween-80): 95 % of control

SMILES: CC(C)(CP(c1ccccc1)c1ccccc1)c1ccccc1
- T/C (dose: 25.0 mg/kg/injection, schedule: Q04DX002 (ip), vehicle: saline with Tween-80): 95 % of control
- T/C (dose: 50.0 mg/kg/injection, schedule: Q04DX002 (ip), vehicle: saline with Tween-80): 95 % of control
- T/C [10]: 89 % of control
- T/C [11]: 92 % of control

SMILES: CCCN1CCN(CCO)CC1C (configuration not stated)
- T/C [15]: 98 % of control
- T/C [16]: 101 % of control
- T/C (dose: 400.0 mg/kg/injection, schedule: Q01DX001 (ip), vehicle: saline): 98 % of control

SMILES: O=C1NC(=O)C(O)(O)C(=O)N1
- T/C [21]: 104 % of control
- T/C [22]: 93 % of control
